These results are taken from US12077503B2, “Substituted cyclic amides and their use as herbicides” (FMC CORPORATION, priority 2015, dated 2024).

Where two headings read alike, the source gives them in different places.

What all share (format): in vivo
Test [1] deals with giant foxtail (Setaria faberii). Nature of the test: Test A preemergence. Conditions: Setaria faberi, pre-emergence, 240 h; for pest or weed control at 125 g/ha: 125 g ai/ha; for pest or weed control at 500 g/ha: 500 g ai/ha. In outline: (§1)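 Visual injury, scored on a 0–100 scale relative to untreated controls, was recorded about 10 d after application. Treatments were a preemergence soil spray over planted seeds or a postemergence spray on plants at the one- to two-leaf stage, 2 to 10 cm tall, all in loam soil–sand blend in the greenhouse.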

For test [2], the system named is Galium (catchweed bedstraw, Galium aparine). Nature of the test: Test A postemergence. Conditions: Galium, post-emergence, 240 h, postemergence; for pest or weed control at 125 g/ha: 125 g ai/ha. An outline of the steps:
as §1

Test [3] relates to Kochia (Kochia scoparia). Nature of the test: Test A postemergence. Conditions: Bassia scoparia, post-emergence, 240 h, postemergence; for pest or weed control at 125 g/ha: 125 g ai/ha. In outline:
as §1

In test [4] the test system is barnyardgrass (Echinochloa crus-galli). Nature of the test: Test A postemergence. The settings on record: Echinochloa crus-galli, post-emergence, 240 h, postemergence; for pest or weed control at 125 g/ha: 125 g ai/ha. In outline: as §1
The test system of test [5] is blackgrass (Alopecurus myosuroides). Nature of the test: Test A postemergence. The settings on record: Alopecurus myosuroides, post-emergence, 240 h, postemergence; for pest or weed control at 125 g/ha: 125 g ai/ha. An outline of the steps: as §1
Test [6] has as its system corn (Zea mays). Nature of the test: Test A postemergence. The settings on record: Zea mays, post-emergence, 240 h, postemergence; for plant injury at 125 g/ha: 125 g ai/ha. In outline: as §1
Test [7] deals with giant foxtail (Setaria faberii). Nature of the test: Test A postemergence. Conditions: Setaria faberi, post-emergence, 240 h, postemergence; for pest or weed control at 125 g/ha: 125 g ai/ha. An outline of the steps:
as §1

In test [8] the test system is pigweed (Amaranthus retroflexus). Nature of the test: Test A postemergence. Conditions: Amaranthus retroflexus, post-emergence, 240 h, postemergence; for pest or weed control at 125 g/ha: 125 g ai/ha. An outline of the steps:
as §1

In test [9] the test system is ragweed (common ragweed, Ambrosia elatior). Nature of the test: Test A postemergence. Conditions: Ambrosia artemisiifolia, post-emergence, 240 h, postemergence; for pest or weed control at 125 g/ha: 125 g ai/ha. An outline of the steps: as §1
Test [10] has as its system ryegrass, Italian (Italian ryegrass, Lolium multiflorum). Nature of the test: Test A postemergence. The settings on record: Lolium multiflorum, post-emergence, 240 h, postemergence; for pest or weed control at 125 g/ha: 125 g ai/ha. An outline of the steps:
as §1

Test [11] relates to wheat (Triticum aestivum). Kind of test: Test A postemergence. Conditions: Triticum aestivum, post-emergence, 240 h, postemergence; for plant injury at 125 g/ha: 125 g ai/ha. An outline of the steps: as §1
Test [12] has as its system barnyardgrass (Echinochloa crus-galli). Nature of the test: Test B flooded paddy test. Conditions: Echinochloa crus-galli, Flood, 250 g ai/ha, read-out: Barnyardgrass plant response rating. In outline:
(§2)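 Compound goes directly into floodwater once pots are flooded 3 cm above soil, targeting plants at two leaves; the water depth is then held for the test duration. Plants sit 13–15 d in a greenhouse and are rated visually, 100 denoting complete control.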

Test [13] has as its system ducksalad (Heteranthera limosa). Kind of test: Test B flooded paddy test. Conditions: Heteranthera limosa, Flood, 250 g ai/ha, read-out: Ducksalad plant response rating. An outline of the steps: as §2
Test [14] relates to rice (Oryra sativa). Kind of test: Test B flooded paddy test. The settings on record: Oryza sativa, Flood, 250 g ai/ha, read-out: Rice plant response rating. An outline of the steps: as §2
The subject of test [15] is sedge, umbrella (small-flower umbrella sedge, Cyperus difformis). Kind of test: Test B flooded paddy test. Conditions: Cyperus difformis, Flood, 250 g ai/ha, read-out: Sedge, Umbrella plant response rating. In outline: as §2
The mark [16] stands for this setting: preemergence, 0 to 100 scale where 0 is no effect and 100 is complete control, read-out: Foxtail, Giant plant response rating.
The mark [17] stands for this setting: scale of 0 to 100 where 0 is no effect and 100 is complete control.
Setting [18] is: 0 to 100 scale where 0 is no effect and 100 is complete control.

As to `N#Cc1cccc(NC(=O)[C@H]2C(=O)NC[C@@H]2c2cccc(C(F)(F)F)c2)c1F` [Compound 829], the pest or weed control at 125 g/ha was determined as 90% in test [1] (setting [16]); 30% in [2] (visual injury rating after approximately 10 d, read-out: Galium plant response rating (0 to 100 scale, 0 no effect, 100 complete control)); 0% in test [3] (visual injury rating after approximately 10 d, read-out: Kochia plant response rating (0 to 100 scale, 0 no effect, 100 complete control)); 80% in test [4] (visual injury rating after approximately 10 d, read-out: Barnyardgrass plant response rating (0 to 100 scale, 0 no effect, 100 complete control)); 40% in [5] (visual injury rating after approximately 10 d, read-out: Blackgrass plant response rating (0 to 100 scale, 0 no effect, 100 complete control)); 90% in test [7] (visual injury rating after approximately 10 d, read-out: Foxtail, Giant plant response rating (0 to 100 scale, 0 no effect, 100 complete control)). Besides, the pest or weed control at 125 g/ha in test [8] (visual injury rating after approximately 10 d, read-out: Pigweed plant response rating (0 to 100 scale, 0 no effect, 100 complete control)) turned out to be 0%; in test [9] (visual injury rating after approximately 10 d, read-out: Ragweed plant response rating (0 to 100 scale, 0 no effect, 100 complete control)), 0%; in [10] (visual injury rating after approximately 10 d, read-out: Ryegrass, Italian plant response rating (0 to 100 scale, 0 no effect, 100 complete control)), 20%. In addition, the pest or weed control at 500 g/ha in test [1] (Preemergence, visual injury vs untreated controls after approximately 10 d, read-out: Foxtail, Giant plant response rating (0 to 100 scale where 0 is no effect and 100 is complete control)) stood at 90%. Moreover, the plant injury at 125 g/ha was 30% in test [6] (visual injury rating after approximately 10 d, read-out: Corn plant response rating (0 to 100 scale, 0 no effect, 100 complete control)) and 30% in test [11] (visual injury rating after approximately 10 d, read-out: Wheat plant response rating (0 to 100 scale, 0 no effect, 100 complete control)). For the same compound, the pest or weed control at 250 g/ha was 55% in test [12] (setting [17]), 70% in test [13] (setting [17]), 0% in test [14] (setting [17]) and 0% in [15] (setting [17]).

For `O=C1NC[C@H](c2cscn2)[C@H]1C(=O)Nc1cccc(F)c1F` [Compound 1111], the pest or weed control at 125 g/ha in [1] (preemergence, 0 to 100 scale where 0 is no effect and 100 is complete control, approx. 10 d, read-out: Foxtail, Giant plant response rating) stood at 0%; in test [2] (visual injury on 0 to 100 scale (0 no effect, 100 complete control), approx. 10 d, read-out: Galium plant response rating) it was 0%; in [3] (visual injury on 0 to 100 scale (0 no effect, 100 complete control), approx. 10 d, read-out: Kochia plant response rating) it was 0%; in test [4] (visual injury on 0 to 100 scale (0 no effect, 100 complete control), approx. 10 d, read-out: Barnyardgrass plant response rating), 0%; in test [5] (visual injury on 0 to 100 scale (0 no effect, 100 complete control), approx. 10 d, read-out: Blackgrass plant response rating) it was 0%; in [7] (visual injury on 0 to 100 scale (0 no effect, 100 complete control), approx. 10 d, read-out: Foxtail, Giant plant response rating) it was 20%. Moreover, the pest or weed control at 125 g/ha in test [8] (visual injury on 0 to 100 scale (0 no effect, 100 complete control), approx. 10 d, read-out: Pigweed plant response rating) came to 0%; in test [9] (visual injury on 0 to 100 scale (0 no effect, 100 complete control), approx. 10 d, read-out: Ragweed plant response rating) it was 0%; in test [10] (visual injury on 0 to 100 scale (0 no effect, 100 complete control), approx. 10 d, read-out: Ryegrass, Italian plant response rating), 0%. Further, the pest or weed control at 500 g/ha in [1] (setting [16]) amounted to 0%; in test [2] (500 g ai/ha, 0 to 100 scale, 0 is no effect, 100 is complete control, read-out: Galium plant response rating), 0%; in [3] (500 g ai/ha, 0 to 100 scale, 0 is no effect, 100 is complete control, read-out: Kochia plant response rating), 0%; in [4] (500 g ai/ha, 0 to 100 scale, 0 is no effect, 100 is complete control, read-out: Barnyardgrass plant response rating) it was 0%; in [5] (500 g ai/ha, 0 to 100 scale, 0 is no effect, 100 is complete control, read-out: Blackgrass plant response rating), 0%; in test [7] (500 g ai/ha, 0 to 100 scale, 0 is no effect, 100 is complete control, read-out: Foxtail, Giant plant response rating) it was 50%. In addition, the pest or weed control at 500 g/ha in test [8] (500 g ai/ha, 0 to 100 scale, 0 is no effect, 100 is complete control, read-out: Pigweed plant response rating) amounted to 0%; in test [9] (500 g ai/ha, 0 to 100 scale, 0 is no effect, 100 is complete control, read-out: Ragweed plant response rating), 0%; in test [10] (500 g ai/ha, 0 to 100 scale, 0 is no effect, 100 is complete control, read-out: Ryegrass, Italian plant response rating) it was 0%. Moreover, the plant injury at 125 g/ha in test [6] (visual injury on 0 to 100 scale (0 no effect, 100 complete control), approx. 10 d, read-out: Corn plant response rating) is 0%; in test [11] (visual injury on 0 to 100 scale (0 no effect, 100 complete control), approx. 10 d, read-out: Wheat plant response rating), 0%. Further, the plant injury at 500 g/ha in test [6] (500 g ai/ha, 0 to 100 scale, 0 is no effect, 100 is complete control, read-out: Corn plant response rating) turned out to be 0%; in [11] (500 g ai/ha, 0 to 100 scale, 0 is no effect, 100 is complete control, read-out: Wheat plant response rating), 0%. The pest or weed control at 250 g/ha in test [12] (setting [18]) is 20%; in test [13] (setting [18]), 70%; in test [14] (setting [18]), 0%; in test [15] (setting [18]), 0%.
